Data taken from ChEMBL document CHEMBL1145064, “Fluorine substitution can block CYP3A4 metabolism-dependent inhibition: identification of (S)-N-[1-(4-fluoro-3- morpholin-4-ylphenyl)ethyl]-3- (4-fluorophenyl)acrylamide as an orally bioavailable KCNQ2 opener devoid of CYP3A4 metabolism-dependent inhibition” (J Med Chem, 2003).

Legend:
[1] = Elimination half life in rat after i.v. dose of 1 mg/kg; assay type: ADME, organism-based; set-up: dose 1 mg/kg, route intravenous; conditions: in vivo, iv
[2] = Oral bioavailability in rat after oral administration of 10 mg/kg dose; assay type: ADME, organism-based; conditions: in vivo
[3] = molecular target: Potassium voltage-gated channel subfamily KQT member 2 (Homo sapiens, UniProt O43526); assay: Effective concentration against Potassium voltage gated channel, KQT-like subfamily, member 2 expressed in SH-SY5Y human neuroblastoma cells; assay type: cell-based
Chain of Potassium voltage-gated channel subfamily KQT member 2 (O43526 whole entry): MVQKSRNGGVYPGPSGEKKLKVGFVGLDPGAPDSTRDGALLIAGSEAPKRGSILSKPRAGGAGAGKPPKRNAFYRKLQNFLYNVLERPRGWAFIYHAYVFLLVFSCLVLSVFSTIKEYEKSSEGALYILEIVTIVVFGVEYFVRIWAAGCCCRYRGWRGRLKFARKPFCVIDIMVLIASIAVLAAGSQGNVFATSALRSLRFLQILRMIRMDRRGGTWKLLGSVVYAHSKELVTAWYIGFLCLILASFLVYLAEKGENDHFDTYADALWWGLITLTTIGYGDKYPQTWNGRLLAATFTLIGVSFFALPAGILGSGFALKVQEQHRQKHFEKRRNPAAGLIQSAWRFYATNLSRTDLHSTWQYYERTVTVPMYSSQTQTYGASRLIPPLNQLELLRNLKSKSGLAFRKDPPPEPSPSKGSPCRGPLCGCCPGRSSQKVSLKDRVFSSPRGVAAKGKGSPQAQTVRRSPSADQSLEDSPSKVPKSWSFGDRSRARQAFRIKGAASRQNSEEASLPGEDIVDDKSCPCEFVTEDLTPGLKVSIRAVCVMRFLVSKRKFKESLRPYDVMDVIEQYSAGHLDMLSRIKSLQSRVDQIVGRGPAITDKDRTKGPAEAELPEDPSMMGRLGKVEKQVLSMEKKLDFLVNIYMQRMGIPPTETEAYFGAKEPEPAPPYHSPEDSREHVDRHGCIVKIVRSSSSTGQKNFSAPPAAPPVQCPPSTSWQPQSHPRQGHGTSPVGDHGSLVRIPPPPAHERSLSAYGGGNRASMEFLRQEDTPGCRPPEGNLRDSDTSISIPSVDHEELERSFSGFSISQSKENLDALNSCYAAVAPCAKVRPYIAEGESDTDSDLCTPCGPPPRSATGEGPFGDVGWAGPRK

[4] = molecular target: T1, Cytochrome P450 3A4 (Homo sapiens, UniProt P08684)
T1 sequence (P08684 whole entry): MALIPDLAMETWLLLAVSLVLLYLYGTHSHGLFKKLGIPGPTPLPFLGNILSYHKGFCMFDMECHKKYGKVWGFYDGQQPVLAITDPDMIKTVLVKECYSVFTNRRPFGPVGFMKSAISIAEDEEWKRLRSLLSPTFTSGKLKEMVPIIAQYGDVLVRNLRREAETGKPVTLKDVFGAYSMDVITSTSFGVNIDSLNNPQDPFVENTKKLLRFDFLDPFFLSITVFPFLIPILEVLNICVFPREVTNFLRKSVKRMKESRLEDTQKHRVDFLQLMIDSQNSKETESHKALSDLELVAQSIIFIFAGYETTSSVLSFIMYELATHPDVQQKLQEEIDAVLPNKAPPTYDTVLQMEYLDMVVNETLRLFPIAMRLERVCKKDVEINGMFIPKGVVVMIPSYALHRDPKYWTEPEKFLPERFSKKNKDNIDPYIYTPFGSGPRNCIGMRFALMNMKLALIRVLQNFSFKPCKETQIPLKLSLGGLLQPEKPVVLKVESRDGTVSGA
Description: Inhibition of recombinant human Cytochrome P450 3A4 with BFC [7-benzyloxy-4-trifluoromethylcoumarin] after 45 minutes

[5] = Vd compound was determined in rat after i.v. dose of 1 mg/kg; assay type: ADME, organism-based; set-up: dose 1 mg/kg, route intravenous; conditions: in vivo, iv
[6] = molecular target: Potassium voltage-gated channel subfamily KQT member 2 (Mus musculus) (UniProt Q9Z351); assay: Effective concentration against Potassium voltage gated channel KQT-like subfamily, member 2 (mouse) expressed in HEK 293 cells
Chain of Potassium voltage-gated channel subfamily KQT member 2 (Mus musculus) (Q9Z351 whole entry, looked up): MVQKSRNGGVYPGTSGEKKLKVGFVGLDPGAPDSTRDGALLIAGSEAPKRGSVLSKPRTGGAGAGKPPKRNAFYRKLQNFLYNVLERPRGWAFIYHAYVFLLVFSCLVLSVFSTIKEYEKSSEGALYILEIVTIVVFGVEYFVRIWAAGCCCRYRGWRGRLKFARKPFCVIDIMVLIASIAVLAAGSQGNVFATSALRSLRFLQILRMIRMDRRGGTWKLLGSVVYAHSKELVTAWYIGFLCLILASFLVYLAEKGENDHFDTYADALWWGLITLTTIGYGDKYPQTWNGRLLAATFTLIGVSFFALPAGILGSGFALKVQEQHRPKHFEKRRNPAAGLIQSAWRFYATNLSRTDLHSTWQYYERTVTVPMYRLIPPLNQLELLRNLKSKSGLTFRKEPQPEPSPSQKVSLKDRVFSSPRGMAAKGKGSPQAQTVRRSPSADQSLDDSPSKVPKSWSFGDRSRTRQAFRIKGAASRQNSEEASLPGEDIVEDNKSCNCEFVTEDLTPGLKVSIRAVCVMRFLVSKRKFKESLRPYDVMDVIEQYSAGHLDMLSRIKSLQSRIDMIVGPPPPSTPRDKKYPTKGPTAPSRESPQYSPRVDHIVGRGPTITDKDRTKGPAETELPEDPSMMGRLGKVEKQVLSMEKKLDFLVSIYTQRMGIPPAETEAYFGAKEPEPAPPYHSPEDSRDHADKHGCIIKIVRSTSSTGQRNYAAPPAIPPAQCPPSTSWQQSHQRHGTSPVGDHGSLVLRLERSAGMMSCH

[7] = molecular target: T1, Cytochrome P450 3A4; remark: listed apart in the source
Description: Inhibition of recombinant human Cytochrome P450 3A4 using BFC [7-benzyloxy-4-trifluoromethylcoumarin] after 30 minutes

[8] = molecular target: T1, Cytochrome P450 3A4; remark: listed apart in the source
Description: Inhibition of recombinant human Cytochrome P450 3A4 with BFC [7-benzyloxy-4-trifluoromethylcoumarin] after 15 minutes

[9] = molecular target: T1, Cytochrome P450 3A4; remark: listed apart in the source
Description: Inhibition of recombinant human Cytochrome P450 3A4 with BFC [7-benzyloxy-4-trifluoromethylcoumarin] after 5 minutes

[10] = Plasma clearance in rat after i.v. dose of 1 mg/kg; assay type: ADME, organism-based; set-up: dose 1 mg/kg, route intravenous; conditions: iv
[11] = molecular target: T1, Cytochrome P450 3A4; assay type: ADME
[12] = molecular target: T2, Cytochrome P450 1A2 (Homo sapiens, UniProt P05177); assay: Inhibition of recombinant human Cytochrome P450 1A2; assay type: ADME
T2 sequence (P05177 whole entry): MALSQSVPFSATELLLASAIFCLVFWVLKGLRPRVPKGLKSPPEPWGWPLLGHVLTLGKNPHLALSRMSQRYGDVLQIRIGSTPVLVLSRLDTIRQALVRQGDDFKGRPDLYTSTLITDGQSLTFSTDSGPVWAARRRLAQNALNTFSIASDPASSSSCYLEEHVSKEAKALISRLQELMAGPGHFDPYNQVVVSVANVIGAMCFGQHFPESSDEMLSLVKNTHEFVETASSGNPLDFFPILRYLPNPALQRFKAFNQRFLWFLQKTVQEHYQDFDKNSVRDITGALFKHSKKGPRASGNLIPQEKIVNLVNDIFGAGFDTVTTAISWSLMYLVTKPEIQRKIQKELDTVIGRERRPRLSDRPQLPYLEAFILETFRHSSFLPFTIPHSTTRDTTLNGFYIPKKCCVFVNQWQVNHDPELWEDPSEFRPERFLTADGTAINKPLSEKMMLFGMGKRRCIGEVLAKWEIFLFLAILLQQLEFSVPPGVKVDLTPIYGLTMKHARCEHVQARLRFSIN

[13] = molecular target: Cytochrome P450 2D6 (Homo sapiens, UniProt P10635); assay: Inhibition of recombinant human Cytochrome P450 2D6; assay type: ADME
Chain of Cytochrome P450 2D6 (P10635 whole entry): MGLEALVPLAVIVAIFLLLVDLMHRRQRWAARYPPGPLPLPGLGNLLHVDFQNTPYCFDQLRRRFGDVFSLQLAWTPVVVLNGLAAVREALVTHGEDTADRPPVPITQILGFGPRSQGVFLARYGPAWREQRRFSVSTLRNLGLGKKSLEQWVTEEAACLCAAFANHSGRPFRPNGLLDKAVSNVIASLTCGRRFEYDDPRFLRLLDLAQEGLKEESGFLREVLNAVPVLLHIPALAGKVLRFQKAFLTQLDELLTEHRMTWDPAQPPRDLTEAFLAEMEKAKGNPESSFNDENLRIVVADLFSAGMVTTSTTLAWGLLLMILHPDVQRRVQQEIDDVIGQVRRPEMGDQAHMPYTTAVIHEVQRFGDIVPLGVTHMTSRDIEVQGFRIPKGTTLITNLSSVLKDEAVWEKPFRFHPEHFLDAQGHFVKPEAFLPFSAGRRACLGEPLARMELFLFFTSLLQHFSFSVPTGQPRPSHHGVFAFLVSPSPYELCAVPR

[14] = molecular target: Cytochrome P450 2C19 (Homo sapiens) (UniProt P33261); assay: Inhibition of recombinant human Cytochrome P450 2C19
Chain of Cytochrome P450 2C19 (Homo sapiens) (P33261 whole entry, looked up): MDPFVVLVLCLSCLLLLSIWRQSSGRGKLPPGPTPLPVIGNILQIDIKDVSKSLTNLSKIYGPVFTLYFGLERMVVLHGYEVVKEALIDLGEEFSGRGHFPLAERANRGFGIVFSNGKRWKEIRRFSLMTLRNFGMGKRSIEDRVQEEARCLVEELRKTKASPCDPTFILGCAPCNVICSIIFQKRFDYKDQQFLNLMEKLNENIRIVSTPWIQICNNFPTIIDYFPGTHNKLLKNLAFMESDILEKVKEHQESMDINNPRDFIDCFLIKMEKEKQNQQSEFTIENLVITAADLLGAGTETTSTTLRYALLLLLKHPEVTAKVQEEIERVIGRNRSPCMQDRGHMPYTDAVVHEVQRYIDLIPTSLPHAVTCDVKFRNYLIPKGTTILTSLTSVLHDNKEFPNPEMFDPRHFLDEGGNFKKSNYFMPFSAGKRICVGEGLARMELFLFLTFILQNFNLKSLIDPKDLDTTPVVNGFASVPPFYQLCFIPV

[15] = molecular target: T1, Cytochrome P450 3A4; assay: Inhibition of recombinant human Cytochrome P450 3A4 with Benzoylresorufin; assay type: ADME
[16] = molecular target: Cytochrome P450 2C9 (Homo sapiens, UniProt P11712); assay: Inhibition of recombinant human Cytochrome P450 2C9; assay type: ADME
Chain of Cytochrome P450 2C9 (P11712 whole entry): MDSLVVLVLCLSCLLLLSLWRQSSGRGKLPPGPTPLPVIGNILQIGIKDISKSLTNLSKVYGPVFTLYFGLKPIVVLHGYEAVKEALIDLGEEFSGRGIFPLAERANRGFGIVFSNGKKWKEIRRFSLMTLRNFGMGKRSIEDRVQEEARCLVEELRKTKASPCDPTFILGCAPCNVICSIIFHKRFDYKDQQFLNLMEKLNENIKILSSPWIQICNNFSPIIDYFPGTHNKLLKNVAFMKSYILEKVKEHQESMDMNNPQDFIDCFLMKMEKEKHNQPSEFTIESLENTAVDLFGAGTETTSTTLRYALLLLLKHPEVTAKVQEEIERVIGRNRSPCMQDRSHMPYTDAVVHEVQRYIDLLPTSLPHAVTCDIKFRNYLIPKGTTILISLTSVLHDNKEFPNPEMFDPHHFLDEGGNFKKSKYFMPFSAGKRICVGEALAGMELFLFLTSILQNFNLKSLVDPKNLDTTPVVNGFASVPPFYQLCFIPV

Row | SMILES | half-life [1] [h] | bioavailability [2] [%] | EC50 [3] [µM] | IC50 [4] [µM] | Vd [5] [L/kg] | EC50 [6] [µM] | IC50 [7] [µM] | IC50 [8] [µM] | IC50 [9] [µM] | clearance [10] [mL/min/kg] | IC50 [11] [µM] | IC50 [12] [µM] | IC50 [13] [µM] | IC50 [14] [µM] | IC50 [15] [µM] | IC50 [16] [µM]
1 | C[C@H](NC(=O)/C=C/c1ccc(F)cc1)c1ccc(F)c(N2CCOCC2)c1 | 3.5 | 84 | 1.55 | 19 | 3.3 | 1.2 | 19 | 21 | 18 | 17.8 |  |  |  |  |  | 
2 | C[C@H](NC(=O)/C=C/c1ccccc1)c1cccc(N2CCOCC2)c1 |  |  | 0.69 | 22 |  | 3 | 33 | 62 | 96 |  | 27 | 78 | > 100 | 13 | 76 | 5.3
